Experimental data as given in PubChem BioAssay (NCI).
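Interpolation was linear, between the two tested concentrations surrounding the appropriate level; five concentrations were tested over 48 hours in 96-well plates. The concentration for 50% growth inhibition is given as GI50. Definition used: TGI = concentration required for complete inhibition of growth.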

Assays:
Test in all cases: DTP human tumour cell line panel, 48 h
[1] = system: 786-0 renal
[2] = system: A498 renal
[3] = system: A549 NSCLC
[4] = system: ACHN renal
[5] = system: BT-549 breast
[6] = system: CAKI-1 renal
[7] = system: CCRF-CEM leukemia
[8] = system: COLO 205 colon
[9] = system: DU-145 prostate
[10] = system: EKVX NSCLC
[11] = system: HCC-2998 colon
[12] = system: HCT-116 colon
[13] = system: HCT-15 colon
[14] = system: HL-60(TB) leukemia
[15] = system: HOP-62 NSCLC
[16] = system: HOP-92 NSCLC
[17] = system: HS 578T breast
[18] = system: IGROV1 ovarian
[19] = system: KM12 colon
[20] = system: LOX IMVI melanoma
[21] = system: M14 melanoma
[22] = system: MALME-3M melanoma
[23] = system: MCF7 breast
[24] = system: MDA-MB-231 breast
[25] = system: MDA-MB-435
[26] = system: MDA-MB-468 breast
[27] = system: MOLT-4 leukemia
[28] = system: NCI-H226 lung
[29] = system: NCI-H23 lung
[30] = system: NCI-H460 lung
[31] = system: NCI-H522 lung
[32] = system: NCI/ADR-RES ovarian
[33] = system: OVCAR-3 ovarian
[34] = system: OVCAR-5 ovarian
[35] = system: PC-3 prostate
[36] = system: RPMI-8226 leukemia
[37] = system: RXF 393 renal
[38] = system: SF-268 CNS
[39] = system: SF-295 CNS
[40] = system: SF-539 CNS
[41] = system: SK-MEL-2 melanoma
[42] = system: SK-MEL-28 melanoma
[43] = system: SK-MEL-5 melanoma
[44] = system: SK-OV-3 ovarian
[45] = system: SN12C renal
[46] = system: SNB-19 CNS
[47] = system: SNB-75 CNS
[48] = system: SW-620 colon
[49] = system: T-47D breast
[50] = system: TK-10 renal
[51] = system: U251 CNS
[52] = system: UACC-257 melanoma
[53] = system: UACC-62 melanoma
[54] = system: UO-31 renal

For `Cc1ccc(C2CC(c3ccc(S(=O)(=O)NCCNc4nc(Nc5ccc(F)cc5)nc(N(C)C)n4)cc3)=Nc3c(N)nc(N)nc3N2)cc1` (stereo not drawn), the GI50 [1] was 7.06 µM, the TGI [1] was > 100 µM and the GI50 [2] was > 100 µM. For the same compound, the TGI [2] was > 100 µM, the GI50 [3] was > 100 µM and the TGI [3] was > 100 µM. For the same compound, the GI50 [4] was > 100 µM, the TGI [4] was > 100 µM and the GI50 [5] was 5.46 µM. The TGI [5] was 59.4 µM, the GI50 [6] was 8.06 µM and the TGI [6] was > 100 µM. The GI50 [7] was 2810 nM, the TGI [7] was > 100 µM and the GI50 [8] was 11.5 µM. For the same compound, the TGI [8] was > 100 µM, the GI50 [9] was > 100 µM and the TGI [9] was > 100 µM. For the same compound, the GI50 [10] was 5.84 µM, the TGI [10] was > 100 µM and the GI50 [11] was 2930 nM. The TGI [11] was 41.1 µM, the GI50 [12] was 3.81 µM and the TGI [12] was > 100 µM. The GI50 [13] was 4.95 µM, the TGI [13] was > 100 µM and the GI50 [14] was 2940 nM. The TGI [14] was 20.2 µM, the GI50 [15] was > 100 µM and the TGI [15] was > 100 µM. It also gave a GI50 [16] of 2540 nM, a TGI [16] of 21 µM and a GI50 [17] of 19.4 µM. The TGI [17] was > 100 µM, the GI50 [18] was 64.4 µM and the TGI [18] was > 100 µM. For the same compound, the GI50 [19] was 4.56 µM, the TGI [19] was > 100 µM and the GI50 [20] was 2090 nM. For the same compound, the TGI [20] was 5.11 µM, the GI50 [21] was 4.56 µM and the TGI [21] was > 100 µM. It also gave a GI50 [22] of 4.65 µM, a TGI [22] of 33.2 µM and a GI50 [23] of 3.08 µM. The TGI [23] was > 100 µM, the GI50 [24] was 3.86 µM and the TGI [24] was > 100 µM. The GI50 [25] was 8.79 µM, the TGI [25] was > 100 µM and the GI50 [26] was 2720 nM. For the same compound, the TGI [26] was 8.52 µM, the GI50 [27] was 2200 nM and the TGI [27] was 7.53 µM. The GI50 [28] was > 100 µM, the TGI [28] was > 100 µM and the GI50 [29] was 78.8 µM. For the same compound, the TGI [29] was > 100 µM, the GI50 [30] was 4.76 µM and the TGI [30] was > 100 µM. The GI50 [31] was 21.3 µM, the TGI [31] was > 100 µM and the GI50 [32] was > 100 µM. The TGI [32] was > 100 µM, the GI50 [33] was 9.93 µM and the TGI [33] was > 100 µM. The GI50 [34] was > 100 µM, the TGI [34] was > 100 µM and the GI50 [35] was 3.33 µM. For the same compound, the TGI [35] was > 100 µM, the GI50 [36] was 2940 nM and the TGI [36] was > 100 µM. It also gave a GI50 [37] of 2270 nM, a TGI [37] of 9.12 µM and a GI50 [38] of 7.53 µM. For the same compound, the TGI [38] was > 100 µM, the GI50 [39] was 6.6 µM and the TGI [39] was > 100 µM. For the same compound, the GI50 [40] was 3.29 µM, the TGI [40] was 78.9 µM and the GI50 [41] was 11.2 µM. The TGI [41] was 77.7 µM, the GI50 [42] was 26.9 µM and the TGI [42] was > 100 µM. The GI50 [43] was 4.98 µM, the TGI [43] was 20.6 µM and the GI50 [44] was > 100 µM. For the same compound, the TGI [44] was > 100 µM, the GI50 [45] was > 100 µM and the TGI [45] was > 100 µM. The GI50 [46] was 13.1 µM, the TGI [46] was > 100 µM and the GI50 [47] was > 100 µM. For the same compound, the TGI [47] was > 100 µM, the GI50 [48] was 8.04 µM and the TGI [48] was > 100 µM. For the same compound, the GI50 [49] was 8.75 µM, the TGI [49] was > 100 µM and the GI50 [50] was > 100 µM. For the same compound, the TGI [50] was > 100 µM, the GI50 [51] was 7.08 µM and the TGI [51] was > 100 µM. The GI50 [52] was 26 µM, the TGI [52] was > 100 µM and the GI50 [53] was 20.9 µM. For the same compound, the TGI [53] was > 100 µM, the GI50 [54] was > 100 µM and the TGI [54] was > 100 µM.
